{
  "source": "patent US10906887B2",
  "about": "“Amino compounds for treatment of immune and inflammatory disorders” (Achillion Pharmaceuticals, Inc., priority 2015, dated 2021)",
  "biological_target": "T1, Human Factor D (Homo sapiens, UniProt P00746)",
  "T1 construct": "purified from human serum",
  "T1 sequence (P00746 26-253)": "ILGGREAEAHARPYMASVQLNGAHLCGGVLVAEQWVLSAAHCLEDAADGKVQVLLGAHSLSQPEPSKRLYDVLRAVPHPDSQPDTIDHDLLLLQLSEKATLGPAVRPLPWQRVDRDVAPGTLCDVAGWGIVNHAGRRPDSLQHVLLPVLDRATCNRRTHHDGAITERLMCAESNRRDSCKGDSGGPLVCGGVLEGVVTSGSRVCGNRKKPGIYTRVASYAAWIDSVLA",
  "assay": "Human Factor D Assay",
  "type": "biochemical",
  "conditions": "Human Factor D 80 nM, substrate Z-L-Lys-SBzl, assay of Example 12",
  "description": "Human Factor D (purified from human serum, Complement Technology, Inc.) at 80 nM final concentration was incubated with test compound at various concentrations for 5 minutes at room temperature in 50 mM Tris, 1M NaCl, pH 7.5. A synthetic substrate Z-L-Lys-SBzl and DTNB (Ellman's reagent) are added to final concentrations of 100 μM each. Absorbance at 405 nm (A405) was recorded at 30 second intervals for 30 minutes using a microplate spectrophotometer. IC50 values are calculated by nonlinear regression of complement Factor D reaction rates as a function of test compound concentration.\nThe assay of Example 12 was used to determine the IC50's of the compounds. Other standard Factor D inhibition assays are also available.",
  "data": [
    {"smiles": "Cc1cccc(NC(=O)[C@@H]2CC=CCN2C(=O)Cn2cc(C(N)=O)c3cc(Nc4cccnn4)ccc32)n1", "note": "[compound 1, (S)-1-(2-(6-((6-methylpyridin-2-yl)carbamoyl)-5,6-dihydropyridin-1(2H)-yl)-2-oxoethyl)-5-(pyridazin-3-ylamino)-1H-indole-3-carboxamide]", "values": [
      {"measurement": "IC50", "value": "> 10", "unit": "µM"}
    ]}
  ]
}
